Where a name gives a salt, the structure may show the parent alone.

What is called IC50 is the midpoint of a concentration-inhibition curve.

Sequence of rat TRPV1 (O35433 whole entry): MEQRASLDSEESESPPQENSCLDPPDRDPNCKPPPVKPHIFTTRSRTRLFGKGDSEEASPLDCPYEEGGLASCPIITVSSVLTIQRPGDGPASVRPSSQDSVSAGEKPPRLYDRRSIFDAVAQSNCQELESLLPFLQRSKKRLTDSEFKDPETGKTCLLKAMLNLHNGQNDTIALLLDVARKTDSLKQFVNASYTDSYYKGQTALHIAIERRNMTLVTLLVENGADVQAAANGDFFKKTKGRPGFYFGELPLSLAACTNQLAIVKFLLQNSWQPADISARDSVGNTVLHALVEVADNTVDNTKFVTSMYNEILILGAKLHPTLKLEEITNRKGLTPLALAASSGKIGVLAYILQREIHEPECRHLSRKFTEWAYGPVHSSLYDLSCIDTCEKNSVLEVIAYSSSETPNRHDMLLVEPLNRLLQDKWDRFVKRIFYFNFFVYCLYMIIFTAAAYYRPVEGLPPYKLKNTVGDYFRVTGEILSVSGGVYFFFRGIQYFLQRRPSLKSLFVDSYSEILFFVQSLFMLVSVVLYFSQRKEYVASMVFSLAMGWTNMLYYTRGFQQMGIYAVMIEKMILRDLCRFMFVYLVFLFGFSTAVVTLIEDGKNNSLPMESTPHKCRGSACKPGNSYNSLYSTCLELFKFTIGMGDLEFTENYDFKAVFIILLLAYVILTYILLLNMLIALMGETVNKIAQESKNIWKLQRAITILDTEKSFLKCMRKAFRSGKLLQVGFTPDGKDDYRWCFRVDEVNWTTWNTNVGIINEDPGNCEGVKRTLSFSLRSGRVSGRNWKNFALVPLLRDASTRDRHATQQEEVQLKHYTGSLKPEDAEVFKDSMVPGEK

This assay concerns the target rat TRPV1 (Rattus norvegicus (Rat), UniProt O35433). Conditions: read-out: Rat IC50.
Description: Biological Testing: Functional Assay: Block of Capsaicin-Induced Ca^2+ Influx A. Human Assay
Cells were passaged frequently, every 3-5 days, to avoid overgrowth, depletion of essential medium components, or acidic medium exposure. Cells were passaged using a brief wash in 0.05% trypsin with 1 mM EDTA, followed by dissociation in divalent-free phosphate-buffered saline (Hyclone #SH30028.02). […] The assay buffer was composed of 130 mM NaCl, 2 mM KCl, 2 mM MgCl2, 10 mM HEPES, 5 mM glucose, and either 2 mM or 20 μM CaCl2. On the day of the experiment, the culture medium was replaced with 2 mM calcium assay buffer using an automated plate washer (ELx405; Biotek, VT). […] After loading the cells, the dye solution was replaced with 50 μL/well of 20 μM calcium assay buffer using the ELx405 plate washer. Test compounds (50 μL/well) were added to the plate and incubated for 30 min. […] The IC50 values were determined. […] The contents of the wells were mixed 3 times (40 μL mix volume) immediately after the additions were made. Concentration dependence of block was determined by exposing each well of cells in duplicate rows of a 96 well plate to a serial dilution of test compound. The concentration series usually started at 10 μM with a three-fold serial decrement in concentration. The magnitude of the capsaicin response was determined by measuring the change in fluo3 fluorescence before and 100 seconds after the addition of the agonist. Data were analyzed using a non-linear regression program (Origin; OriginLab, MA). IC50 values shown are the average (mean) of the results obtained.
The assay was performed as described above, using HEK293 cells transfected with rat TRPV1 (rTRPV1/HEK293). […] IC50 values shown are the average (mean) of the results obtained.
Consider `FC(F)(F)c1ccc(Nc2nc(NCCN3CCCCC3)nc3c2CCN(c2ncccc2C(F)(F)F)CC3)cc1` [Example 58B, N^2-(2-Piperidin-1-yl-ethyl)-N^4-(4-trifluoromethyl-phenyl)-7-(3-trifluoro-methyl-pyridin-2-yl)-6,7,8,9-tetrahydro-5H-pyrimido[4,5-d]azepine-2,4-diamine trifluoroacetic acid salt], for which the IC50 is 1500 nM. In the case of `FC(F)(F)c1ccc(Nc2nc(NC3CCOCC3)nc3c2CCN(c2ncccc2C(F)(F)F)CC3)cc1` [Example 61B, N^2-(Tetrahydro-pyran-4-yl)-N^4-(4-trifluoromethyl-phenyl)-7-(3-trifluoro-methyl-pyridin-2-yl)-6,7,8,9-tetrahydro-5H-pyrimido[4,5-d]azepine-2,4-diamine trifluoroacetic acid salt] it was 230 nM. `CN(C)c1nc2c(c(Nc3ccc(C(F)(F)F)nc3)n1)CCN(c1ncccc1C(F)(F)F)CC2` [Example 43B, N^2,N^2-Dimethyl-N^4-(6-trifluoromethyl-pyridin-3-yl)-7-(3-trifluoro-methyl-pyridin-2-yl)-6,7,8,9-tetrahydro-5H-pyrimido[4,5-d]azepine-2,4-diamine trifluoroacetic acid salt]: the IC50 was 390 nM. On to `O=C(O)C1CCN(c2nc3c(c(Nc4ccc(C(F)(F)F)cc4)n2)CCN(c2ncccc2C(F)(F)F)CC3)CC1` [Example 57B, 1-[4-(4-Trifluoromethyl-phenylamino)-7-(3-trifluoromethyl-pyridin-2-yl)-6,7,8,9-tetrahydro-5H-pyrimido[4,5-d]azepin-2-yl]-piperidine-4-carboxylic acid trifluoroacetic acid salt], for which the IC50 was determined as 5500 nM. For the compound `CN(C)c1nc2c(c(NCc3ccc(Cl)c(Cl)c3)n1)CCN(c1ncccc1C(F)(F)F)CC2` [Example 73B, N^4-(3,4-Dichloro-benzyl)-N^2,N^2-dimethyl-7-(3-trifluoromethyl-pyridin-2-yl)-6,7,8,9-tetrahydro-5H-pyrimido[4,5-d]azepine-2,4-diamine trifluoroacetic acid salt], the IC50 was 6700 nM.

(Values after US9738649B2 (priority 2006, dated 2017).)
